Source: PMC11876671, “Investigating blood–brain barrier penetration and neurotoxicity of natural products for central nervous system drug development” (Scientific Reports, 2025)
Like-named read-outs stand apart in the source and are kept apart here.

Tests used:
[1] = system: GFP-labeled iPSC-derived human cortical glutamatergic neurons; test: cells; conditions: Neuron, 48 h
[2] = system: GFP-labeled iPSC-derived human cortical glutamatergic neurons; test: cells; type: cell-based
in vitro = conditions: PAMPA, PAMPA-BBB Pe
[3] = system: GFP-labeled iPSC-derived human cortical glutamatergic neurons
offspring neurogenesis = conditions: rat, in vivo, po; cited from earlier work
[4] = system: human glial and neuroblastoma cell lines; conditions: malignant glioma tumor cells; cited from earlier work
[5] = read-out: Viability AC50 (48 h)
[6] = read-out: Viability AC50 (48hr)
[7] = Homo sapiens, Neuron, Table S1, total neurite length, 48 hr, head prints no unit, µM per Table 1 and Fig. 5, read-out: TNL AC50 (48 hr)
[8] = Homo sapiens, Neuron, total neurite length, 48 h treatment, read-out: TNL AC50 (48 h)
[9] = Table 1, 60 min, room temperature, 0.05 mM
[10] = Table S2: compounds exhibiting moderate to high PAMPA-BBB permeability
[11] = Table S1, 60 min, room temperature, 0.05 mM
[12] = Homo sapiens, Neuron, rounded values, read-out: AC50 (neurite outgrowth inhibition)

| Compound | AC50 [1, 5] [µM] | AC50 [1, 6] [µM] | AC50 [2, 7] [µM] | AC50 [2, 8] [µM] | PAMPA-BBB Pe [9] | PAMPA-BBB Pe [10] | Papp (in vitro; [11]) [×10⁻⁶ cm/s] | also measured |
| --- | --- | --- | --- | --- | --- | --- | --- | --- |
| CCC(=O)CCCCC[C@@H]1NC(=O)[C@H]2CCCCN2C(=O)[C@H]([C@@H](C)CC)NC(=O)[C@H](Cc2cn(OC)c3ccccc23)NC1=O [Apicidin] | 2.17 | 2.17 | 4.84 | 4.84 | 55.75 10 × 10^− 6 cm/sec | 56 10^-6 cm/sec | 55.8 | – |
| COc1cc(C)ccc1O [Creosol] | – | 10.5 | – | – | – | – | – | AC50 ([2]; Homo sapiens, Neuron, 48 h, read-out: TNL AC50 (48 hr)): 15.3 µM; PAMPA-BBB Pe (PAMPA): 115 10^-6 cm/sec; Papp (in vitro): 115 ×10⁻⁶ cm/s |
| COc1ccc(/C=C/C(=O)c2cc(O)ccc2O)cc1 [NCGC00096016-04] | – | 19.8 | 12.9 | – | – | 300 10^-6 cm/sec | 300 | – |
| CC1=CC(=O)c2c(O)cccc2C1=O [Plumbagin] | 1.32 | – | – | 0.927 | 68.8 10 × 10^− 6 cm/sec | 69 10^-6 cm/sec | 68.8 | inhibition of cortical neurite outgrowth (total neurite length) ([2]; 24 and 48 h treatment, in words): inhibited cortical neurite outgrowth; AC50 [2, 12]: 0.9 µM; effect on number of objects ([3]; 48 h treatment, in words): minimal effects |
| COc1cc2c(c3oc4cccc(O)c4c(=O)c13)[C@@H]1C=CO[C@@H]1O2 [Sterigmatocystin] | – | – | – | – | – | – | – | AC50 ([2]; read-out: AC50 (neurite outgrowth inhibition)): 2.3 µM; AC50 ([2]; read-out: TNL AC50 (48 h)): 2.32 µM; AC50 ([2]; read-out: TNL AC50 (48 hr)): 2.32 µM; Viability AC50 (48 h) [3]: inactive; PAMPA-BBB Pe (PAMPA): 221 10 × 10^− 6 cm/sec; adverse effects on offspring neurogenesis (offspring neurogenesis): no adverse effects; Papp (in vitro): 221 ×10⁻⁶ cm/s |
| COc1ccc(-c2coc3c(O)c(O)c(OC)cc3c2=O)cc1 [NCGC00264029-02] | – | 25.6 | 30.1 | – | – | 40 10^-6 cm/sec | 40.1 | – |
| O=c1cc(N2CCOCC2)oc2c(-c3cccc4c3sc3ccccc34)cccc12 [NU-7441, 8-(4-DIBENZOTHIENYL)-2-(4-MORPHOLINYL)-4H-1-BENZOPYRAN-4-ONE, reference compound] | 7.6 | 7.6 | 2.85 | 2.85 | 101.9 10 × 10^− 6 cm/sec | – | 102 | – |
| Cc1nccc2c1[nH]c1ccccc12 [Harmane] | 12.2 | – | 3.21 | 3.21 | – | – | – | PAMPA-BBB Pe (PAMPA): 59.65 10 × 10^− 6 cm/sec; Papp (in vitro): 59.6 ×10⁻⁶ cm/s |
| C/C=C(\C)C(=O)N[C@@H](c1ccccc1)[C@@H](O)C(=O)O[C@H]1C[C@@]2(O)[C@@H](OC(=O)c3ccccc3)[C@@H]3[C@]4(OC(C)=O)CO[C@@H]4C[C@H](O)[C@@]3(C)C(=O)[C@H](OC(C)=O)C(=C1C)C2(C)C [Cephalomannine] | – | – | – | 0.688 | 78.57 10 × 10^− 6 cm/sec | 79 10^-6 cm/sec | 78.6 | cytotoxicity relative to taxol (less cytotoxic) [4]: ~ 35%; AC50 [2, 12]: 0.7 µM; Viability AC50 (48 h) ([3]; 48 h treatment): inactive |
| 2 ,4 -DIHYDROXYCHALCONE | – | – | – | – | – | – | – | AC50 ([2]; Table S1, total neurite length, 48 hr, head prints no unit, µM per Table 1 and Fig. 5, read-out: TNL AC50 (48 hr)): 16.9 µM; AC50 ([3]; read-out: Viability AC50 (48hr), Table S1, 48 hr, head prints no unit, µM per Table 1 and Fig. 5): 20.9 µM; PAMPA-BBB Pe [11]: 222.92 10^-6 cm/sec |
| CN1Cc2c(ccc3c2OCO3)[C@@H]2[C@H]1c1cc3c(cc1C[C@@H]2O)OCO3 [Chelidonine] | – | 5.8 | 7.54 | – | – | 75 10^-6 cm/sec | 75 | – |
| C=C(C)[C@@H]1CCC2=CC(=O)C[C@@H](C)[C@]2(C)C1 [Nootkatone] | – | 3.98 | 13.1 | – | – | 63 10^-6 cm/sec | 63.3 | – |
| O=c1cc(-c2ccc(O)cc2)oc2cc(O)cc(O)c12 [Apigenin] | – | 37.2 | 35.9 | – | – | 36 10^-6 cm/sec | 36.2 | – |
| O=c1cc(-c2ccc(O)c(O)c2)oc2ccccc12 [3',4'-DIHYDROXYFLAVONE] | – | 19.8 | 15.7 | – | – | 94 10^-6 cm/sec | 93.9 | – |
| CC1=C(O)C(=O)C=C2C1=CC=C1[C@@]2(C)CC[C@@]2(C)[C@@H]3C[C@](C)(C(=O)O)CC[C@]3(C)CC[C@]12C [Celastrol] | 5.47 | 5.47 | 4.92 | 4.92 | 142.58 10 × 10^− 6 cm/sec | – | 143 | Papp (in vitro; [10]): 143 ×10⁻⁶ cm/s |
